Laboratory results: the supplement of paper PMC10307832

Experiments:
Test in all cases: relative viability (nuclei count vs DMSO), 5 days (fraction); higher = more cells survive
EHT 1864 + Luminespib = compound: C1COCCN1CC2=CC(=O)C(=CO2)OCCCCCSC3=C4C=CC(=CC4=NC=C3)C(F)(F)F [EHT 1864] + CCNC(=O)c1noc(-c2cc(C(C)C)c(O)cc2O)c1-c1ccc(CN2CCOCC2)cc1 [Luminespib] (partner 0.01 µM)
In short: (§1)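 Relative viability was taken as the ratio of nuclei in treated wells to nuclei in vehicle wells. Lung cancer cell lines in 1536-well plates received compounds by pin tool one day after seeding, either one drug alone or a fixed anchor-drug dose plus five library-drug doses (not always all listed) in √10 steps. Nuclei were counted on 4× images after 5 days of treatment, and values are medians of duplicate plates.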

EHT 1864 + OSI-027 = compound: C1COCCN1CC2=CC(=O)C(=CO2)OCCCCCSC3=C4C=CC(=CC4=NC=C3)C(F)(F)F [EHT 1864] + COc1cccc2cc(-c3nc([C@H]4CC[C@H](C(=O)O)CC4)n4ncnc(N)c34)[nH]c12 [OSI-027] (partner 0.5 µM)
In short: as §1

EHT 1864 + Lapatinib = compound: C1COCCN1CC2=CC(=O)C(=CO2)OCCCCCSC3=C4C=CC(=CC4=NC=C3)C(F)(F)F [EHT 1864] + CS(=O)(=O)CCNCc1ccc(-c2ccc3ncnc(Nc4ccc(OCc5cccc(F)c5)c(Cl)c4)c3c2)o1 [Lapatinib] (partner 2 µM)
In short: as §1

EHT 1864 + Linsitinib = compound: C1COCCN1CC2=CC(=O)C(=CO2)OCCCCCSC3=C4C=CC(=CC4=NC=C3)C(F)(F)F [EHT 1864] + C[C@]1(O)C[C@@H](c2nc(-c3ccc4ccc(-c5ccccc5)nc4c3)c3c(N)nccn32)C1 [Linsitinib] (partner 1 µM)
In short: as §1

Cell Line	relative viability (EHT 1864 + Luminespib; first compound 0.04 µM)	relative viability (EHT 1864 + Luminespib; first compound 0.4 µM)	relative viability (EHT 1864 + Luminespib; first compound 1.265 µM)	relative viability (EHT 1864 + Luminespib; first compound 4 µM)	relative viability (EHT 1864 + OSI-027; first compound 0.04 µM)	relative viability (EHT 1864 + OSI-027; first compound 0.4 µM)	relative viability (EHT 1864 + OSI-027; first compound 1.265 µM)	relative viability (EHT 1864 + OSI-027; first compound 4 µM)	relative viability (EHT 1864 + Lapatinib; first compound 0.04 µM)	relative viability (EHT 1864 + Lapatinib; first compound 0.1265 µM)	relative viability (EHT 1864 + Lapatinib; first compound 0.4 µM)	relative viability (EHT 1864 + Lapatinib; first compound 1.265 µM)	relative viability (EHT 1864 + Lapatinib; first compound 4 µM)	relative viability (EHT 1864 + Linsitinib; first compound 0.04 µM)	relative viability (EHT 1864 + Linsitinib; first compound 0.1265 µM)	relative viability (EHT 1864 + Linsitinib; first compound 0.4 µM)	relative viability (EHT 1864 + Linsitinib; first compound 1.265 µM)	relative viability (EHT 1864 + Linsitinib; first compound 4 µM)	relative viability (EHT 1864 + Luminespib; first compound 0.1265 µM)	relative viability (EHT 1864 + OSI-027; first compound 0.1265 µM)
NCI-H2087	0.175	0.143	0.168	0.135	0.496	0.578	0.496	0.586	1.03	0.485	1.01	0.614	0.789	0.88	0.865	0.796	0.729	0.68		
NCI-H2228	0.143	0.182	0.193	0.0861	0.637	0.666	0.522	0.588	1.08	0.68	1.03	1.13	1.02	0.655	0.635	0.802	0.661	0.478	0.145	0.48
NCI-H727	0.62	0.376	0.538	0.385	0.525	0.592	0.576	0.61	0.841	0.743	0.635		0.881	0.272	0.366	0.349		0.319	0.417	0.532
NCI-H650	0.882	0.664	0.889	0.865	0.53	0.546	0.531	0.49	0.797		1.33	1.07	0.989	0.94		1.01	0.947	0.884	0.658	0.354
NCI-H520	0.221	0.219	0.193	0.234	0.266	0.247	0.24	0.224	0.833	0.743	0.834	0.913	0.694	0.917	0.998	0.747	0.813	0.913	0.227	0.25
EBC-1									0.222	0.225	0.194	0.19	0.238	0.883	0.426	0.914	0.896	0.99		
NCI-H661	0.951	0.877	0.77	0.565	0.735	0.659	0.711	0.597	0.429	0.488	0.511	0.429	0.503	0.603	0.516	0.535	0.512	0.449	0.838	0.587
NCI-H1299									0.969	0.904	0.949	0.931	0.909	0.903	0.877	0.981	0.969	0.936		
LK-2	0.167	0.224	0.178	0.177	0.243	0.227	0.188	0.187	1.05	0.797	0.911	1.03	0.881	0.543	0.527	0.538	0.623	0.724		0.154
NCI-H1993	0.737	0.813	0.865	0.795	0.548	0.541	0.554	0.553	0.918	0.812	0.806	0.864	0.858	0.735	0.757	0.709	0.778	0.695		
NCI-H838	0.274	0.383	0.266	0.293	0.371	0.395	0.376	0.425	0.91	0.799	0.979	0.938	0.932	0.977	0.889	1.08	1.05	1.01	0.237	0.313
NCI-H1437	1.1	1.03	0.912	0.681	0.852	0.813	0.722	0.703	0.793	0.723	0.678	0.636	0.62	0.905	0.917	0.974	0.776	0.655	1.04	0.916
NCI-H1648					0.273	0.242	0.23	0.255												0.29
LCLC-103H	0.874	0.932	0.975	0.919	0.454	0.461	0.44	0.413						1.12	0.83	1.01	1.09	1.39	0.798	0.365
NCI-H441	0.478	0.322	0.393	0.385	0.685	0.414	0.581	0.734						0.517	0.574	0.503	0.461	0.561	0.346	0.511
NCI-H1650		0.203	0.201	0.198		0.599	0.638	0.611	0.741	0.443	0.812	0.841	0.589							
SW 900	0.177	0.181	0.177	0.145	0.555	0.548	0.583	0.483												
IA-LM									0.704		0.74		0.622	0.524	0.325	0.572	0.463	0.644		
NCI-H2342	0.669	0.744	0.702	0.759	0.529	0.576	0.573	0.636											0.651	0.555
HCC-366					0.805	0.939	0.872	0.935	1.02		0.929	1.04	0.992	0.647		0.699	0.598	0.522		0.603
NCI-H522	1.18	1.23	1.06	1.22	0.818	0.696	0.662	0.652												0.631
HCC-78					0.373	0.305	0.37	0.375	0.875	0.525	0.382	0.345	1.05	0.555	0.452	0.394	0.486	0.809		0.337
